From patent US8959984B2, “Proteome-wide quantification of small molecule binding to cellular target proteins” (priority 2007, dated 2015)

Tests used:
Test in all cases: binding to VI16742 beads (HeLa lysate, SILAC MS)
DAPK2 (IPI00033388) = molecular target: T1, DAPK2 (IPI00033388) (Homo sapiens, UniProt Q9UIK4)
T1 construct: endogenous in cells; host or cells: HeLa S3
Procedure, shortened: (§1)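 Kinases were captured on a resin carrying the broadly selective pyrido[2,3-d]pyrimidine-based kinase inhibitor. Proteins specifically retained by the inhibitor resin were scored as binders.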

MAP2K2 (IPI00003783) = molecular target: T2, MAP2K2 (IPI00003783) (Homo sapiens, UniProt P36507)
T2 construct: endogenous in cells; host or cells: HeLa S3
Procedure, shortened: as §1

MAP2K4 (IPI00789335) = molecular target: T3, MAP2K4 (IPI00789335) (Homo sapiens, UniProt P45985)
T3 construct: endogenous in cells; host or cells: HeLa S3
T3 sequence (P45985 1-399): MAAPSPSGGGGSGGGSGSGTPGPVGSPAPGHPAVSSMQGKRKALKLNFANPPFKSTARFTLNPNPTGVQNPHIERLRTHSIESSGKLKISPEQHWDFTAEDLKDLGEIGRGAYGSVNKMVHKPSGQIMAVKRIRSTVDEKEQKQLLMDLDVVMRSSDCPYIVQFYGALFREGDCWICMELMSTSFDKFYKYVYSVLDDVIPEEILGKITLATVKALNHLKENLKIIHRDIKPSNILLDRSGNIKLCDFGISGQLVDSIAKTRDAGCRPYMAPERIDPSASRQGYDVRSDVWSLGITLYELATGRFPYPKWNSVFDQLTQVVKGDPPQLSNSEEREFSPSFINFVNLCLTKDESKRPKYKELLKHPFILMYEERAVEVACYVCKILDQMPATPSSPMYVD
Procedure, shortened: as §1

MAP2K6 (IPI00003814) = molecular target: T4, MAP2K6 (IPI00003814) (Homo sapiens, UniProt P52564)
T4 construct: endogenous in cells; host or cells: HeLa S3
T4 sequence (P52564 1-334): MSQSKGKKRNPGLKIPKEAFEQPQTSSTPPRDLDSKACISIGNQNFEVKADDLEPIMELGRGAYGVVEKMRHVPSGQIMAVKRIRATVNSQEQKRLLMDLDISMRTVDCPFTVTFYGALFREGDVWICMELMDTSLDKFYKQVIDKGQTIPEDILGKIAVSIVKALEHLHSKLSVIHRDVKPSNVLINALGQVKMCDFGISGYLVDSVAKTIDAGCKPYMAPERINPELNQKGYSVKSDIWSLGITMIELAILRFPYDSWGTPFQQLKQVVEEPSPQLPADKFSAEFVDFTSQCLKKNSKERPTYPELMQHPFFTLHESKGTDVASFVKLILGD
Procedure, shortened: as §1

[1] = molecular target: T5, MRCKb (CDC42BPB, IPI00477763) (Homo sapiens, UniProt Q9Y5S2)
T5 construct: endogenous in cells; host or cells: HeLa S3
Procedure, shortened: as §1

[2] = molecular target: T6, MSK1 (RPS6KA5, IPI00335101) (Homo sapiens, UniProt O75582)
T6 construct: endogenous in cells; host or cells: HeLa S3
Procedure, shortened: as §1

[3] = molecular target: T7, NDR1 (STK38, IPI00027251) (Homo sapiens, UniProt Q15208)
T7 construct: endogenous in cells; host or cells: HeLa S3 cell lysate
Procedure, shortened: as §1

SART3 (IPI00006025) = molecular target: T8, SART3 (IPI00006025) (Homo sapiens, UniProt Q15020)
T8 construct: endogenous in cells; host or cells: HeLa S3
T8 sequence (Q15020 1-963): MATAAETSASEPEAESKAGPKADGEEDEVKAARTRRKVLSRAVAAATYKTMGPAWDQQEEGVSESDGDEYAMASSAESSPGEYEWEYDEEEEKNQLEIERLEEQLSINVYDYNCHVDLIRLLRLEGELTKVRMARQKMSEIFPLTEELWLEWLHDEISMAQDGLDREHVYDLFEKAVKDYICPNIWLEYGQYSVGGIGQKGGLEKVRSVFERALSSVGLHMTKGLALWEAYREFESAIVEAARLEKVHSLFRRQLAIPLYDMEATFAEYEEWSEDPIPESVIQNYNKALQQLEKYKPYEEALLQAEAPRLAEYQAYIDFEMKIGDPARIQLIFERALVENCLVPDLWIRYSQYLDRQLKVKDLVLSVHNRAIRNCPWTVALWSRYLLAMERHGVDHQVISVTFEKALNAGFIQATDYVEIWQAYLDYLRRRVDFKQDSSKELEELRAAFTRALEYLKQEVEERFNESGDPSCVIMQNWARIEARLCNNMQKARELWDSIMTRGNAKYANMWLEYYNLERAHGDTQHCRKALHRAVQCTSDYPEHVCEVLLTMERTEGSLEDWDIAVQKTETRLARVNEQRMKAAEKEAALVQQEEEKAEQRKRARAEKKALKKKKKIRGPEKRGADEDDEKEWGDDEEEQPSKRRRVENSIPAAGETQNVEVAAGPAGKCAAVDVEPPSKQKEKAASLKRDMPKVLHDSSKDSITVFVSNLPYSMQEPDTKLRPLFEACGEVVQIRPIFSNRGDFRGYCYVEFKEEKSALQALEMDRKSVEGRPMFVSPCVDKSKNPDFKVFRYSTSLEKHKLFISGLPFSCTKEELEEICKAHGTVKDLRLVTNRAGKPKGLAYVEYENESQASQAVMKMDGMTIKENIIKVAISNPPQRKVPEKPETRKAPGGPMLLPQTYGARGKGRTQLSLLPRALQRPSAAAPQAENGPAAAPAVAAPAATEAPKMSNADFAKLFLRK
Procedure, shortened: as §1

[4] = control beads vs first incubation

T7 sequence (Q15208 whole entry): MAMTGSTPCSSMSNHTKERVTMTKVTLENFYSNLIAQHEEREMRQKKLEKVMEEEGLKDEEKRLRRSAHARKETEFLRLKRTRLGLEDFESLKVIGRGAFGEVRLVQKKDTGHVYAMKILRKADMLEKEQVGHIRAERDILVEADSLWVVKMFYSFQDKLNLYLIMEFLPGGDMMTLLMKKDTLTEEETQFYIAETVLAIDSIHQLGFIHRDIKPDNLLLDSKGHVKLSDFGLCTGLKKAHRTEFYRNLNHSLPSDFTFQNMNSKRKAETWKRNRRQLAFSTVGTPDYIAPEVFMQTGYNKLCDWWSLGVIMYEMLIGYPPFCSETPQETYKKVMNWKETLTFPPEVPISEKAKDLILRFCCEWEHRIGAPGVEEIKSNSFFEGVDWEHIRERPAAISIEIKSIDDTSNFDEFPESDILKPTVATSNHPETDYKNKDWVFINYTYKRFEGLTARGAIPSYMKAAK
T2 sequence (P36507 whole entry): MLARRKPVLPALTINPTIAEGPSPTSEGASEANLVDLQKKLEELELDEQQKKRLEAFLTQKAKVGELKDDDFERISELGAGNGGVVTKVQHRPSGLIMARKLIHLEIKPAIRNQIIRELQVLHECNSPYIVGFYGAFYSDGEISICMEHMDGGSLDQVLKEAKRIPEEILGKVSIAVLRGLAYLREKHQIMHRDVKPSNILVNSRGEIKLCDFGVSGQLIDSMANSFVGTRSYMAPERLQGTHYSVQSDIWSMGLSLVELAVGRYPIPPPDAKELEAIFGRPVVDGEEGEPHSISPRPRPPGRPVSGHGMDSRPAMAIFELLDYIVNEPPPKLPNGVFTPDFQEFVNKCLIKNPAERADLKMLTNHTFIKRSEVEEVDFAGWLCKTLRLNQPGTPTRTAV
T1 sequence (Q9UIK4 whole entry): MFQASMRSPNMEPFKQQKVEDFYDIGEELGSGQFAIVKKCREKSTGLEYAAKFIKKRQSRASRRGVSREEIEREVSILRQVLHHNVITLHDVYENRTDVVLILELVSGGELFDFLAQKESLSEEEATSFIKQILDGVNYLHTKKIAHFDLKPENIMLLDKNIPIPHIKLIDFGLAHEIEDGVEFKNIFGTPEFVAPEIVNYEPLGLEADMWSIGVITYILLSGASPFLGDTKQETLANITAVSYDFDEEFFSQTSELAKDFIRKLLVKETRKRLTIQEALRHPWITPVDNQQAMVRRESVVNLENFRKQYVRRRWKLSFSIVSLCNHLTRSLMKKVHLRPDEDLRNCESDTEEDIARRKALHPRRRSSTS
T6 sequence (O75582 whole entry): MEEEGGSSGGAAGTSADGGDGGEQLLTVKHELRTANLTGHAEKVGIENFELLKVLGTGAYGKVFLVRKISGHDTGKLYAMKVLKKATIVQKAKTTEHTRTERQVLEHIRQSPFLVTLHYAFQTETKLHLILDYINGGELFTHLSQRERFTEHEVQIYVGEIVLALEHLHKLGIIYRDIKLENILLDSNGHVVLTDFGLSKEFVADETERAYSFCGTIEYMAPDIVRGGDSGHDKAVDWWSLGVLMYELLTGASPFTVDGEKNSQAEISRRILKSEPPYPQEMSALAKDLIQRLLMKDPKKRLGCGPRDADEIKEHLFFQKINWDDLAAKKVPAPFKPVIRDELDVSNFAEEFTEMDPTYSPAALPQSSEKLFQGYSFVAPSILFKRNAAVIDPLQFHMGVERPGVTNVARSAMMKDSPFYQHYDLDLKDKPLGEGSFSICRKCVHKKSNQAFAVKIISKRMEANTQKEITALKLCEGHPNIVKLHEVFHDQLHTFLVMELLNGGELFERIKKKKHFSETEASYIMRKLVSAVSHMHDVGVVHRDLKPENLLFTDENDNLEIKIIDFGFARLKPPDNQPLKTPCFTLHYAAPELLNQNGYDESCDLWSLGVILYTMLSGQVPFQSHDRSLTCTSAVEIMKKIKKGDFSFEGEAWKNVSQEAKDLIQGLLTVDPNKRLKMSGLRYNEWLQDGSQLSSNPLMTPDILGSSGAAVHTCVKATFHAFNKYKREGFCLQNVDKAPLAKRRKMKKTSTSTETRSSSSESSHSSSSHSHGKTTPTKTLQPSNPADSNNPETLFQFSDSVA
T5 sequence (Q9Y5S2 whole entry): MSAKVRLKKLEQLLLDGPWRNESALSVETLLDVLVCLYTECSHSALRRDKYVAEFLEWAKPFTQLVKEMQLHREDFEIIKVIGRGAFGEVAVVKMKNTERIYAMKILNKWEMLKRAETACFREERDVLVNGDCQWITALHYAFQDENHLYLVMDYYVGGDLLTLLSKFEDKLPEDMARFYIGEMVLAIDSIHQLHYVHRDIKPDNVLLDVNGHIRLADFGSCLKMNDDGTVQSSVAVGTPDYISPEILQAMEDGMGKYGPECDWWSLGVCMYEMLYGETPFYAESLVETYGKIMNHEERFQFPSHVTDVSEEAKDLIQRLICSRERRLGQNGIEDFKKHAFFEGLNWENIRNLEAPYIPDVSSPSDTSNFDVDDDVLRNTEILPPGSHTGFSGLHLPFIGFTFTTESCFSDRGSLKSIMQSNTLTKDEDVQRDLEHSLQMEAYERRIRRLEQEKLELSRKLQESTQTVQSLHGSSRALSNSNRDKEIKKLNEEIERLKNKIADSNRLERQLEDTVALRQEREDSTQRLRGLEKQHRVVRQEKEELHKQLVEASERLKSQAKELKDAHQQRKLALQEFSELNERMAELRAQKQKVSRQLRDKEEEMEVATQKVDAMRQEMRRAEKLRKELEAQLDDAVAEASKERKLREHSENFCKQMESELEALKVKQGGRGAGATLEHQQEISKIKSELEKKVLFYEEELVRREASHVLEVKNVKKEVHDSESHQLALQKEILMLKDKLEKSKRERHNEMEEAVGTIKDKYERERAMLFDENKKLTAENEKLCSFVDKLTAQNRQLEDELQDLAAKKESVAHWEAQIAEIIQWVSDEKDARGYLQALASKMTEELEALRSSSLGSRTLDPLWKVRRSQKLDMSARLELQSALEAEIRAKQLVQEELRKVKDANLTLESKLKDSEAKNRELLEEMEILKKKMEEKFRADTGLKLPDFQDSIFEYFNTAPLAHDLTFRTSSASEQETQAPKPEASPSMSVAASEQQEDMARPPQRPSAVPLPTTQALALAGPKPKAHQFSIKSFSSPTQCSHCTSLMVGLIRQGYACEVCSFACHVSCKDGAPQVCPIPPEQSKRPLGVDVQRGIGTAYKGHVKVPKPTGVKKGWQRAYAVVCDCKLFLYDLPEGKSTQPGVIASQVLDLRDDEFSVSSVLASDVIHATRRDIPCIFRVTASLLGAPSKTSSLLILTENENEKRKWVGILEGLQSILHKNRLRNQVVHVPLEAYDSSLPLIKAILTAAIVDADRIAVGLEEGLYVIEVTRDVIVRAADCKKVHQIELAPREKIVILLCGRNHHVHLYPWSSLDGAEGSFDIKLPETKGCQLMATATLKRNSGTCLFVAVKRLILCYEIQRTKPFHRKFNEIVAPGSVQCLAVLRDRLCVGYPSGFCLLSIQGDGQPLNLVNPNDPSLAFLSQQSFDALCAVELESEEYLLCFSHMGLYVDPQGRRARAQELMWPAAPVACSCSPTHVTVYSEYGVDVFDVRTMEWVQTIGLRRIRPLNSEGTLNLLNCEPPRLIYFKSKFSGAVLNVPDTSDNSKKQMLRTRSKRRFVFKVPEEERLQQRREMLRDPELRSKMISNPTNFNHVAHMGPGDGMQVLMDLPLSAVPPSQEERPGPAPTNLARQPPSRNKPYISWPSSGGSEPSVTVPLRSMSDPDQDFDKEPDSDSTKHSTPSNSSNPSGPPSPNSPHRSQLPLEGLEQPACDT

## CC(C)n1c(=O)ccc2cnc(Nc3ccc(OCCN)cc3)nc21 [V16742]
DAPK2 (IPI00033388); [4]
  rAVERAGE (CTRL/1 INC): 0.11
DAPK2 (IPI00033388); immobilized VI16742
  Ki: 171 µM
DAPK2 (IPI00033388); second vs first incubation
  rAVERAGE (2 INC/1 INC): 0.77
MAP2K2 (IPI00003783); 5 h vs 2.5 h incubation time
  r (5 h/2.5 h INC. TIME): 2.03
MAP2K2 (IPI00003783); [4]
  rAVERAGE (CTRL/1 INC): 0.03
MAP2K2 (IPI00003783); immobilized VI16742
  Ki: 177 µM
MAP2K2 (IPI00003783); second vs first incubation
  rAVERAGE (2 INC/1 INC): 0.77
MAP2K4 (IPI00789335); [4]
  rAVERAGE (CTRL/1 INC): 0.06
MAP2K4 (IPI00789335); immobilized VI16742
  Ki: 127 µM
MAP2K4 (IPI00789335); second vs first incubation
  rAVERAGE (2 INC/1 INC): 0.71
MAP2K6 (IPI00003814); 3 mg vs 1 mg lysate
  r (3 MG/1 MG LYSATE): 2.41
MAP2K6 (IPI00003814); 5 h vs 2.5 h incubation time
  r (5 h/2.5 h INC. TIME): 1.36
MAP2K6 (IPI00003814); [4]
  rAVERAGE (CTRL/1 INC): 0.05
MAP2K6 (IPI00003814); immobilized VI16742
  Ki: 178 µM
MAP2K6 (IPI00003814); second vs first incubation
  rAVERAGE (2 INC/1 INC): 0.77
[1]; 3 mg vs 1 mg lysate
  r (3 MG/1 MG LYSATE): 2.35
[1]; 5 h vs 2.5 h incubation time
  r (5 h/2.5 h INC. TIME): 1.34
[1]; [4]
  rAVERAGE (CTRL/1 INC): 0.06
[1]; immobilized VI16742
  Ki: 301 µM
[1]; second vs first incubation
  rAVERAGE (2 INC/1 INC): 0.85
[2]; [4]
  rAVERAGE (CTRL/1 INC): 0.03
[2]; immobilized VI16742
  Ki: 217 µM
[2]; second vs first incubation
  rAVERAGE (2 INC/1 INC): 0.81
[3]; [4]
  rAVERAGE (CTRL/1 INC): 0.01
[3]; immobilized VI16742
  Ki: 78.3 µM
[3]; second vs first incubation
  rAVERAGE (2 INC/1 INC): 0.60
SART3 (IPI00006025); 3 mg vs 1 mg lysate
  r (3 MG/1 MG LYSATE): 2.07
SART3 (IPI00006025); 5 h vs 2.5 h incubation time
  r (5 h/2.5 h INC. TIME): 0.90
SART3 (IPI00006025); [4]
  rAVERAGE (CTRL/1 INC): 0.05
SART3 (IPI00006025); immobilized VI16742
  Ki: 126 µM
SART3 (IPI00006025); second vs first incubation
  rAVERAGE (2 INC/1 INC): 0.71
